# Data: patent US20260022143A1, “Cyclic Peptide Inhibitors of IL-23” (JANSSEN PHARMACEUTICA NV, priority 2022, published 2026)
# Structures can show the parent of a compound that is named as a salt. Starred links: 1 amine or outer side, 2 acyl side, 3 side chain; linkers in the order of their positions; H or OH if unused. Positions of bridges follow the written chain, without caps; N, C: chain ends. Non-standard residues stand in square brackets, D forms with d. Residues, ends and D or L forms follow the SMILES beside them. Groups on a side chain read outwards from the residue. *: point of attachment. Trp(7-(3-AcNH-Ph)) = CC(=O)Nc1cccc(-c2cccc3c(C[C@H](N)C(=O)O)c[nH]c23)c1; X68 = COCCOCCOCCOCCOCCOCCC(=O)N(CCCC[C@@H](N[*:1])C(=O)[*:2])C(C)=O; X33 = C[N+](C)(C)CCCCc1cn(-c2ccc(C[C@H](N[*:1])C(=O)[*:2])cc2)nn1; Me3N+(CH2)2O(CH2)2O(CH2)2CO = C[N+](C)(C)CCOCCOCCC(=O)*; CH2CH2OCH2CH2OCH2CH2NMe3+ = C[N+](C)(C)CCOCCOCC*; Trp(7-Me) = Cc1cccc2c(C[C@H](N)C(=O)O)c[nH]c12; dLys(Me3) = C[N+](C)(C)CCCC[C@@H](N)C(=O)O; X83 = CN(CCC[N+](C)(C)CCCC[N+](C)(C)C)CC*; Decanoyl(3,6,9-trioxa) = COCCOCCOCC(=O)*; 3Pal(5-Me) = Cc1cncc(C[C@H](N)C(=O)O)c1; Dab(NMeAc) = CC(=O)N(C)CC[C@H](N)C(=O)O; γGlu = O=C(O)[C@H](CCC(=O)[*:2])N[*:1]; 2Nal = N[C@@H](Cc1ccc2ccccc2c1)C(=O)O; AEF = NCCOc1ccc(C[C@H](N)C(=O)O)cc1; X24 = C[N+](C)(CCN[*:1])CC(=O)[*:2]; X10 = C[N+](C)(C)C[C@H](CC(=O)O)N*; 3Pal = N[C@@H](Cc1cccnc1)C(=O)O; Myristoyl = CCCCCCCCCCCCCC(=O)*; X14 = C[N+](C)(C)CCc1cn(CC*)nn1; Lys(Me) = CNCCCC[C@H](N)C(=O)O; Agb = N=C(N)NCC[C@H](N)C(=O)O; Pen = CC(C)(S)[C@H](N)C(=O)O; Suc = O=C(CCC(=O)[*:2])[*:1]; Thp = NC1(C(=O)O)CCOCC1; X3 = C[N+](C)(C)CCCCC*; AEEA = NCCOCCOCC(=O)O; Tfa = O=C(C(F)(F)F)*; Sar = CNCC(=O)O
# Assay: Exposed Polar Surface Area (EPSA)
# Type: physicochemical
# Details: SFC on Chirex 3014 column; sample 1 mM DMSO stock; read-out: EPSA
# Procedure, shortened: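 SFC retention on a Chirex 3014 (S-valine/(R)-1-(α-naphthyl)ethylamine) column at 35 °C, 4 mL/min, 14 MPa outlet, 5–60% methanol/20 mM ammonium formate gradient in CO2. Retention times converted to EPSA (Å²) via linear calibration with 8 standards; samples from 1 mM DMSO stock, run in duplicate.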
row,EPSA [A^2],SMILES
1,149,CC(=O)NCCCC[C@@H]1NC(=O)[C@H](Cc2c[nH]c3c(C)cccc23)NC(=O)[C@H]([C@@H](C)O)NC(=O)[C@H](CC(N)=O)NC(=O)[C@@H](NC(C)=O)C(C)(C)SSC(C)(C)[C@@H](C(=O)N[C@@H](Cc2ccc(OCCn3cc(CC[N+](C)(C)C)nn3)cc2)C(=O)N[C@@H](Cc2ccc3ccccc3c2)C(=O)NC2(C(=O)N[C@@H](CCCCNC(C)=O)C(=O)N[C@@H](CC(N)=O)C(=O)N[C@@H](Cc3cccnc3)C(=O)N(C)CC(N)=O)CCOCC2)NC1=O [compound 235] (Ac-[Pen]NT[Trp(7-Me)]K(Ac)[Pen]Y(X14)[2Nal][Thp]K(Ac)N[3Pal][Sar]-NH2; disulfide 1-6 (inferred))
2,154,"CC(=O)N(C)CCCC[C@@H]1NC(=O)[C@H](Cc2c[nH]c3c(C)cccc23)NC(=O)[C@H]([C@@H](C)O)NC(=O)[C@H](CC(=O)N(C)C)NC(=O)[C@@H](NC(=O)CCOCCOCC[N+](C)(C)C)C(C)(C)SSC(C)(C)[C@@H](C(=O)N[C@@H](Cc2ccc(OCCN(C)CCC[N+](C)(C)CCCC[N+](C)(C)C)cc2)C(=O)N[C@@H](Cc2ccc3ccccc3c2)C(=O)NC2(C(=O)N[C@@H](CCCCN(C)C(C)=O)C(=O)N[C@@H](CC(N)=O)C(=O)N[C@@H](Cc3cccnc3)C(=O)N(C)CC(=O)N(C)C)CCOCC2)NC1=O [compound 277, cPEG3aCO-Pen(3)-N(N(Me)2)-T-7MeW-K(NMeAc)-Pen(3)-AEF(SPD)-2Nal-THP-K(NMeAc)-N-3Pya-Sar-CON(Me)2] ({Me3N+(CH2)2O(CH2)2O(CH2)2CO}-[Pen]D(NMe2)T[Trp(7-Me)][Lys(Me)](Ac)[Pen]Y(X83)[2Nal][Thp][Lys(Me)](Ac)N[3Pal][Sar]-NMe2; disulfide 1-6)"
3,137,"COCCOCCOCC(=O)NCC[N+](C)(C)CC(=O)N[C@@H]1C(=O)N[C@@H](CC(=O)N(C)C)C(=O)N[C@@H]([C@@H](C)O)C(=O)N[C@@H](Cc2c[nH]c3c(C)cccc23)C(=O)N[C@@H](CCCCN(C)C(C)=O)C(=O)N[C@H](C(=O)N[C@@H](Cc2ccc(OCCOCCOCC[N+](C)(C)C)cc2)C(=O)N[C@@H](Cc2ccc3ccccc3c2)C(=O)NC2(C(=O)N[C@@H](CCN(C)C(C)=O)C(=O)N[C@@H](CC(N)=O)C(=O)N[C@@H](Cc3cccnc3)C(=O)N(C)CC(=O)N(C)C)CCOCC2)C(C)(C)SSC1(C)C [compound 197, mPEG3CO-SP6-Pen(3)-N(N(Me)2)-T-7MeW-K(NMeAc)-Pen(3)-APEG3F-2Nal-THP-Dab(NMeAc)-N-3Pya-Sar-CON(Me)2] ({Decanoyl(3,6,9-trioxa)}-[X24][Pen]D(NMe2)T[Trp(7-Me)][Lys(Me)](Ac)[Pen]Y(CH2CH2OCH2CH2OCH2CH2NMe3+)[2Nal][Thp][Dab(NMeAc)]N[3Pal][Sar]-NMe2; disulfide 2-7)"
4,155,"CC(=O)N(C)CCCC[C@@H]1NC(=O)[C@H](Cc2c[nH]c3c(C)cccc23)NC(=O)[C@H]([C@@H](C)O)NC(=O)[C@H](CC(=O)N(C)C)NC(=O)[C@@H](NC(=O)CCOCCOCC[N+](C)(C)C)C(C)(C)SSC(C)(C)[C@@H](C(=O)N[C@@H](Cc2ccc(-n3cc(CCCC[N+](C)(C)C)nn3)cc2)C(=O)N[C@@H](Cc2ccc3ccccc3c2)C(=O)NC2(C(=O)N[C@@H](CCCCN(C)C(C)=O)C(=O)N[C@@H](CC(N)=O)C(=O)N[C@@H](Cc3cccnc3)C(=O)N(C)CC(=O)N(C)C)CCOCC2)NC1=O [compound 302, cPEG3aCO-Pen(3)-N(N(Me)2)-T-7MeW-K(NMeAc)-Pen(3)-F(4TzlTMA4)-] ({Me3N+(CH2)2O(CH2)2O(CH2)2CO}-[Pen]D(NMe2)T[Trp(7-Me)][Lys(Me)](Ac)[Pen][X33][2Nal][Thp][Lys(Me)](Ac)N[3Pal][Sar]-NMe2; disulfide 1-6)"
5,157,CC(=O)N[C@@H]1C(=O)N[C@@H](CCNC(=N)N)C(=O)N[C@@H]([C@@H](C)O)C(=O)N[C@@H](Cc2c[nH]c3c(C)cccc23)C(=O)N[C@@H](CCCCN(C)C(C)=O)C(=O)N[C@H](C(=O)N[C@@H](Cc2ccc(OCCOCCOCC[N+](C)(C)C)cc2)C(=O)N[C@@H](Cc2ccc3ccccc3c2)C(=O)NC2(C(=O)N[C@@H](CCCCN(C)C(C)=O)C(=O)N[C@@H](CC(N)=O)C(=O)N[C@@H](Cc3cccnc3)C(=O)N(C)CC(=O)N(C)C)CCOCC2)C(C)(C)SSC1(C)C [compound 412] (Ac-[Pen][Agb]T[Trp(7-Me)][Lys(Me)](Ac)[Pen]Y(CH2CH2OCH2CH2OCH2CH2NMe3+)[2Nal][Thp][Lys(Me)](Ac)N[3Pal][Sar]-NMe2; disulfide 1-6)

# Second part, the compound before the results:
row,SMILES,EPSA [A^2]
1,CC(=O)NCCCC[C@@H]1NC(=O)[C@H](Cc2c[nH]c3c(C)cccc23)NC(=O)[C@H]([C@@H](C)O)NC(=O)[C@H](CC(N)=O)NC(=O)[C@@H](NC(C)=O)C(C)(C)SSC(C)(C)[C@@H](C(=O)N[C@@H](Cc2ccc(OCCN)cc2)C(=O)N[C@@H](Cc2ccc3ccccc3c2)C(=O)NC2(C(=O)N[C@@H](CCCCNC(C)=O)C(=O)N[C@@H](CC(N)=O)C(=O)N[C@@H](Cc3cccnc3)C(=O)N(C)CC(=O)N(C)C)CCOCC2)NC1=O [compound 282] (Ac-[Pen]NT[Trp(7-Me)]K(Ac)[Pen][AEF][2Nal][Thp]K(Ac)N[3Pal][Sar]-NMe2; disulfide 1-6),163
2,"CCCCCCCCCCCCCC(=O)N[C@@H](CCC(=O)NCCOCCOCC(=O)NCCOCCOCC(=O)NCCCC[C@H](NC(=O)C1(NC(=O)[C@H](Cc2ccc3ccccc3c2)NC(=O)[C@H](Cc2ccc(OCCCCC[N+](C)(C)C)cc2)NC(=O)[C@H]2NC(=O)[C@H](CCCCN(C)C(C)=O)NC(=O)[C@H](Cc3c[nH]c4c(C)cccc34)NC(=O)[C@H]([C@@H](C)O)NC(=O)[C@H](CC(=O)N(C)C)NC(=O)[C@@H](NC(=O)CCOCCOCC[N+](C)(C)C)C(C)(C)SSC2(C)C)CCOCC1)C(=O)N[C@@H](CC(N)=O)C(=O)N[C@@H](Cc1cccnc1)C(=O)N(C)CC(=O)N(C)C)C(=O)O [compound 402, cPEG3aCO-Pen(3)-N(N(Me)2)-T-7MeW-K(NMeAc)-Pen(3)-TMAPF-2Nal-THP-K(PEG2PEG2gEC14)-N-3Pya-Sar-CON(Me)2] ({Me3N+(CH2)2O(CH2)2O(CH2)2CO}-[Pen]D(NMe2)T[Trp(7-Me)][Lys(Me)](Ac)[Pen]Y(X3)[2Nal][Thp]K([AEEA-AEEA-γGlu-Myristoyl])N[3Pal][Sar]-NMe2; disulfide 1-6)",156
3,CC(=O)NCCCC[C@@H]1NC(=O)[C@H](Cc2c[nH]c3c(C)cccc23)NC(=O)[C@H]([C@@H](C)O)NC(=O)[C@H](CC(N)=O)NC(=O)[C@@H](NC(=O)[C@@H](CCCCNC(=O)CCOCCOCC[N+](C)(C)C)NC(C)=O)C(C)(C)SSC(C)(C)[C@@H](C(=O)N[C@@H](Cc2ccc(OCCN)cc2)C(=O)N[C@@H](Cc2ccc3ccccc3c2)C(=O)NC2(C(=O)N[C@@H](CCC(=O)O)C(=O)N[C@@H](CC(N)=O)C(=O)N[C@@H](Cc3cccnc3)C(=O)N(C)CC(N)=O)CCOCC2)NC1=O [compound 84] (Ac-[dK](Me3N+(CH2)2O(CH2)2O(CH2)2CO)[Pen]NT[Trp(7-Me)]K(Ac)[Pen][AEF][2Nal][Thp]EN[3Pal][Sar]-NH2; disulfide 2-7),166
4,COCCOCCOCCOCCOCCOCCC(=O)N(CCCC[C@H]1NC(=O)[C@H](Cc2c[nH]c3c(C)cccc23)NC(=O)[C@H]([C@@H](C)O)NC(=O)[C@H](CC(N)=O)NC(=O)[C@@H](NC(C)=O)C(C)(C)SSC(C)(C)[C@@H](C(=O)N[C@@H](Cc2ccc(OCCN)cc2)C(=O)N[C@@H](Cc2ccc3ccccc3c2)C(=O)NC2(C(=O)N[C@@H](CCCCNC(C)=O)C(=O)N[C@@H](CC(N)=O)C(=O)N[C@@H](Cc3cccnc3)C(=O)N(C)CC(N)=O)CCOCC2)NC1=O)C(C)=O [compound 78] (Ac-[Pen]NT[Trp(7-Me)][X68][Pen][AEF][2Nal][Thp]K(Ac)N[3Pal][Sar]-NH2; disulfide 1-6),157
5,CC(=O)NCCCC[C@@H]1NC(=O)[C@H](Cc2c[nH]c3c(C)cccc23)NC(=O)[C@H]([C@@H](C)O)NC(=O)[C@H](CC(N)=O)NC(=O)[C@@H](NC(C)=O)C(C)(C)SSC(C)(C)[C@@H](C(=O)N[C@@H](Cc2ccc(OCCN)cc2)C(=O)N[C@@H](Cc2ccc3ccccc3c2)C(=O)NC2(C(=O)N[C@@H](CCCCNC(=O)CCC(=O)N[C@@H](CC(=O)O)C[N+](C)(C)C)C(=O)N[C@@H](CC(N)=O)C(=O)N[C@@H](Cc3cccnc3)C(=O)N(C)CC(N)=O)CCOCC2)NC1=O [compound 110] (Ac-[Pen]NT[Trp(7-Me)]K(Ac)[Pen][AEF][2Nal][Thp]K([Suc-X10])N[3Pal][Sar]-NH2; disulfide 1-6),171
6,CC(=O)NCCCC[C@H](NC(=O)C1(NC(=O)[C@H](Cc2ccc3ccccc3c2)NC(=O)[C@H](Cc2ccc(OCCN)cc2)NC(=O)[C@H]2NC(=O)[C@H](CCN(C)C(C)=O)NC(=O)[C@H](Cc3c[nH]c4c(C)cccc34)NC(=O)[C@H]([C@@H](C)O)NC(=O)[C@H](CC(N)=O)NC(=O)[C@@H](NC(=O)C(F)(F)F)C(C)(C)SSC2(C)C)CCOCC1)C(=O)N[C@@H](CC(N)=O)C(=O)N[C@@H](Cc1cccnc1)C(=O)N(C)CC(N)=O [compound 70] (Tfa-[Pen]NT[Trp(7-Me)][Dab(NMeAc)][Pen][AEF][2Nal][Thp]K(Ac)N[3Pal][Sar]-NH2; disulfide 1-6),157
7,"CC(=O)NCCCC[C@@H]1NC(=O)[C@H](Cc2c[nH]c3c(-c4cccc(NC(C)=O)c4)cccc23)NC(=O)[C@H]([C@@H](C)O)NC(=O)[C@H](CC(N)=O)NC(=O)[C@@H](NC(=O)[C@@H](CCCC[N+](C)(C)C)NC(C)=O)C(C)(C)SSC(C)(C)[C@@H](C(=O)N[C@@H](Cc2ccc(OCCCCC[N+](C)(C)C)cc2)C(=O)N[C@@H](Cc2ccc3ccccc3c2)C(=O)NC2(C(=O)N[C@@H](CCC(=O)O)C(=O)N[C@@H](CC(N)=O)C(=O)N[C@@H](Cc3cncc(C)c3)C(=O)N(C)CC(N)=O)CCOCC2)NC1=O [compound 513, MeCO-k(Me)3-Pen(3)-N-T-7(3NAcPh)W-K(Ac)-Pen(3)-TMAPF-2Nal-THP-E-N-5MePyridinAla-Sar-CONH2] (Ac-[dLys(Me3)][Pen]NT[Trp(7-(3-AcNH-Ph))]K(Ac)[Pen]Y(X3)[2Nal][Thp]EN[3Pal(5-Me)][Sar]-NH2; disulfide 2-7)",224
